Data: article PMC10610188, “Structure–Activity Relationship Studies of Chalcones and Diarylpentanoids with Antitumor Activity: Potency and Selectivity Optimization” (Pharmaceuticals, 2023)

How the values were obtained:
[1] = test system: HFF-1 cells; test: SRB growth inhibition assay in normal fibroblasts HFF-1; type: cell-based, human; conditions: for SI2: Selective index 2: GI50 of HFF-1/GI50 of HCT116 p53^+/+; for GI50: Homo sapiens, HFF-1, SRB assay, 48 h of treatment
Method: (§1) To study the in vitro antitumor potential of chalcone CM-M345 (1) and diarylpentanoid BP-C4 (2) analogues, the sulforhodamine B (SRB) assay was used to evaluate the antiproliferative activity in human colorectal HCT116 cancer cells. To assess their cytotoxicity toward normal cells, the antiproliferative effect of these compounds was also tested in human fibroblasts HFF-1 cells. In order to confirm if inhibition of proliferation was associated with p53 activation in HCT116 p53^+/+ cells, all compounds were also tested in HCT116 cells in which p53 was knocked out (HCT116 p53^−/−) and the selective index was calculated and compared to the compounds CM-M345 (1) and BP-C4 (2), for which p53-dependent antiproliferative activity was previously reported by our research group (Table 1).
(§2) The colorectal adenocarcinoma HCT116 cells (HCT116 p53^+/+) and its p53-null isogenic derivative (HCT116 p53^−/−) were given by Prof. Vogelstein (The Johns Hopkins Kimmel Cancer Center, Baltimore, USA); the normal human fibroblasts HFF-1 cell lines were from ATCC (Rockville, MD, USA). Human cells were cultured in RPMI-1640 with UltraGlutamine (Lonza, VWR, Portugal) with 10% FBS (Gibco, Alfagene, Portugal) at 37 °C with 5% CO2. The SH-SY5Y cells were cultured in DMEM/F-12 (Lonza) and 10% FBS and 2mM L-glutamine (Gibco). The cells were incubated at 37 °C in a humidified atmosphere of 5% CO2. Mycoplasma was routinely checked using the MycoAlert™ PLUS kit (Lonza). […]

[2] = test system: HCT116 p53^+/+ cells; test: SRB growth inhibition assay in HCT116 p53+/+ cells; type: cell-based, human; conditions: SRB assay, 48 h of treatment
Method: as §1, §2

[3] = test system: HCT116 p53^−/− cells; test: SRB growth inhibition assay in HCT116 p53-/- cells; type: cell-based, human; conditions: for SI1: Selective index 1: GI50 of HCT116 p53^−/−/GI50 of HCT116 p53^+/+; for GI50: Homo sapiens, HCT-116, SRB assay, 48 h of treatment
Method: as §1, §2

Row | Compound | melting point [°C] | SI2: Selective index 2 [1] | GI50 [1] [µM] | GI50 ([2]; Homo sapiens, HCT-116, 48 h) [µM] | SI1: Selective index 1 [3] | GI50 [3] [µM] | GI50 ([2]; Homo sapiens, HCT-116) [µM] | GI50 [2] [µM]
1 | COc1cc(/C=C2\Cc3ccccc3C2=O)cc(OC)c1OC [Compound 3] | 160 to 163 | 1.76 | 8.1 ± 0.1 | 4.6 ± 0.3 | 0.70 | 3.2 ± 0.47 | – | –
2 | COc1cc(/C=C2\Cc3c(ccc(OC)c3OC)C2=O)cc(OC)c1OC [Compound 4, (E)-2-(3,4,5-trimethoxybenzylidene)-4,5-dimethoxy-2,3-dihydro-1H-inden-1-one] | 165 to 168 | 1.34 | 5.1 ± 0.9 | – | 0.82 | 3.1 ± 0.22 | 3.8 ± 0.32 | –
3 | COc1cc2c(cc1OC)C(=O)/C(=C/c1cc(OC)c(OC)c(OC)c1)C2 [Compound 5] | 156 to 159 | 0.52 | 3.2 ± 0.07 | 6.1 ± 0.12 | 0.67 | 4.1 ± 0.36 | – | –
4 | O=C1/C(=C/c2ccc(Cl)cc2)Cc2ccccc21 [Compound 6] | 179 to 181 | – | > 30 | 21.5 to 30 | – | > 30 | – | 21.5 ± 1.19
5 | COc1ccc2c(c1OC)C/C(=C\c1ccc(Cl)cc1)C2=O [Compound 7, (E)-2-(4-chlorobenzylidene)-4,5-dimethoxy-2,3-dihydro-1H-inden-1-one] | 206 to 209 | 0.64 | 4.7 ± 0.5 | 7.4 ± 0.56 | 0.61 | 4.5 ± 0.13 | – | –
6 | COc1cc2c(cc1OC)C(=O)/C(=C/c1ccc(Cl)cc1)C2 [Compound 8] | – | 0.68 | 5.1 ± 0.9 | – | 0.60 | 4.5 ± 0.28 | 7.5 ± 0.45 | –
7 | COc1cc(/C=C2\CCc3ccccc3C2=O)cc(OC)c1OC [Compound 9] | – | 0.93 | 5.5 ± 0.03 | 5.9 ± 1.28 | 1.32 | 7.8 ± 0.9 | – | –
8 | COc1cc2c(cc1OC)C(=O)/C(=C/c1cc(OC)c(OC)c(OC)c1)CC2 [Compound 10, (E)-2-(3,4,5-trimethoxybenzylidene)-6,7-dimethoxy-3,4-dihydronaphthalen-1(2H)-one] | 145 to 147 | 1.35 | 5.4 ± 0.1 | 6.7 to 8.6 | 0.73 | 2.9 ± 0.11 | – | 4 ± 0.23
9 | COc1cc(/C=C2\COc3ccccc3C2=O)cc(OC)c1OC [Compound 11] | 109 to 111 | 1.32 | 8.3 ± 1.4 | 6.7 to 8.6 | 0.97 | 6.1 ± 1 | – | 6.3 ± 2.18
10 | COc1cc(/C=C2\CSc3ccccc3C2=O)cc(OC)c1OC [Compound 12, (Z)-3-(3,4,5-trimethoxybenzylidene)thiochroman-4-one] | – | – | 6.7 ± 0.4 | 5.7 ± 0.51 | – | 3.9 ± 0.26 | – | –
11 | O=C1/C(=C/c2ccc(Cl)cc2)CCc2ccccc21 [Compound 13] | – | – | > 30 | 21.5 to 30 | – | > 30 | – | > 30
12 | COc1cc2c(cc1OC)C(=O)/C(=C/c1ccc(Cl)cc1)CC2 [Compound 14, (E)-2-(4-chlorobenzylidene)-6,7-dimethoxy-3,4-dihydronaphthalen-1(2H)-one] | – | – | 7.7 ± 0.2 | 6.7 ± 0.21 | – | 4.3 ± 0.15 | – | –
13 | O=C1/C(=C/c2ccc(Cl)cc2)COc2ccccc21 [Compound 15] | – | 0.49 | 4.25 ± 0.32 | 8.6 ± 0.5 | 0.62 | 5.29 ± 0.19 | – | –
14 | O=C1/C(=C/c2ccc(Cl)cc2)CC/C1=C\c1ccc(Cl)cc1 [Compound 18] | – | – | > 30 | > 30 | – | > 30 | – | –
15 | O=C1/C(=C/c2ccc(Cl)cc2)CCC/C1=C\c1ccc(Cl)cc1 [Compound 19] | – | 4.55 | 14.1 ± 0.12 | 3.1 ± 0.1 | 0.95 | 2.95 ± 0.15 | – | –
16 | O=C1/C(=C/c2ccc(Cl)cc2)CSC/C1=C\c1ccc(Cl)cc1 [Compound 20] | 126 to 128 | 2.01 | 2.27 ± 0.09 | 1.13 ± 0.17 | 0.93 | 1.05 ± 0.05 | – | –
17 | COc1cc(/C=C/C(=O)/C=C/c2cc(OC)c(OC)c(OC)c2)cc(OC)c1OC [Compound 21] | – | – | > 30 | > 30 | – | > 30 | – | –
18 | COc1cc(/C=C2\CC/C(=C\c3cc(OC)c(OC)c(OC)c3)C2=O)cc(OC)c1OC [Compound 22] | – | 1.50 | 0.135 ± 0.004 | 0.09 ± 0.03 | 0.78 | 0.07 ± 0.01 | – | –
19 | COc1cc(/C=C2\CCC/C(=C\c3cc(OC)c(OC)c(OC)c3)C2=O)cc(OC)c1OC [Compound 23] | – | 0.72 | 1.65 ± 0.04 | 2.3 ± 0.03 | 0.24 | 0.56 ± 0.07 | – | –
20 | COc1cc(/C=C2\CSC/C(=C\c3cc(OC)c(OC)c(OC)c3)C2=O)cc(OC)c1OC [Compound 24] | 219 to 222 | 0.74 | 0.23 ± 0.02 | 0.31 ± 0.03 | 1.84 | 0.57 ± 0.009 | – | –
21 | CCCc1c(OC)ccc(C(=O)/C=C/c2cc(OC)c(OC)c(OC)c2)c1OCC=C(C)C [Compound 26, (E)-1-(4-methoxy-2-((3-methylbut-2-en-1-yl)oxy)-3-propylphenyl)-3-(3,4,5-trimethoxyphenyl)prop-2-en-1-one] | 100 to 103 | 1.22 | 7.3 ± 2 | 6 ± 0.93 | 0.77 | 4.6 ± 1.7 | – | –
22 | CCCc1c(OC)ccc(C(=O)CCc2cc(OC)c(OC)c(OC)c2)c1O [Compound 29, 1-(2-hydroxy-4-methoxy-3-propylphenyl)-3-(3,4,5-trimethoxyphenyl)propan-1-one] | – | 1.18 | 22.1 ± 7.2 | 18.7 ± 2.19 | 0.60 | 11.2 ± 5.3 | – | –
23 | CCCc1c(OC)ccc(C(=O)/C=C/c2ccc(N(C)C)cc2)c1O [Compound 35, (E)-3-(4-(dimethylamino)phenyl)-1-(2-hydroxy-4-methoxy-3-propylphenyl)prop-2-en-1-one] | 126 to 128 | 1.31 | 14 ± 3.6 | – | 1.52 | 16.3 ± 2.6 | – | –
24 | CC(C)=CCOc1ccccc1/C=C1\COC/C(=C\c2ccccc2OCC=C(C)C)C1=O [Compound 38, 3,5-bis((E)-2-((3-methylbut-2-en-1-yl)oxy)benzylidene)tetrahydro-4H-pyran-4-one] | – | – | > 30 | > 30 | – | > 30 | – | –
25 | COc1cc([C@@H]2c3cc4c(cc3[C@@H](O[C@@H]3O[C@@H]5CO[C@@H](C)O[C@H]5[C@H](O)[C@H]3O)[C@H]3COC(=O)[C@H]23)OCO4)cc(OC)c1O [Etoposide, reference compound] | – | – | 0.35 | 0.71 | – | – | – | –
